Patent publication US5846755A (priority 1995, dated 1998)

Tests used:
[1] = target: metalloproteinase purified from snake venom, Bothrops Jararaca; experiment: Inhibition of metalloproteinase purified from Bothrops Jararaca venom; assay type: biochemical; conditions: Table 5; unit M
[2] = target: metalloproteinase purified from snake venom, Echis Carinatus; experiment: Inhibition of metalloproteinase purified from Echis Carinatus venom; assay type: biochemical; conditions: Table 5; unit M
[3] = target: T1, recombinant human gelatinase A (Homo sapiens, UniProt P08253); experiment: In vitro effects on recombinant human gelatinase A; assay type: biochemical
T1 construct: purchased Strangeways Laboratories, Cambridge, UK
T1 sequence (P08253 110-660): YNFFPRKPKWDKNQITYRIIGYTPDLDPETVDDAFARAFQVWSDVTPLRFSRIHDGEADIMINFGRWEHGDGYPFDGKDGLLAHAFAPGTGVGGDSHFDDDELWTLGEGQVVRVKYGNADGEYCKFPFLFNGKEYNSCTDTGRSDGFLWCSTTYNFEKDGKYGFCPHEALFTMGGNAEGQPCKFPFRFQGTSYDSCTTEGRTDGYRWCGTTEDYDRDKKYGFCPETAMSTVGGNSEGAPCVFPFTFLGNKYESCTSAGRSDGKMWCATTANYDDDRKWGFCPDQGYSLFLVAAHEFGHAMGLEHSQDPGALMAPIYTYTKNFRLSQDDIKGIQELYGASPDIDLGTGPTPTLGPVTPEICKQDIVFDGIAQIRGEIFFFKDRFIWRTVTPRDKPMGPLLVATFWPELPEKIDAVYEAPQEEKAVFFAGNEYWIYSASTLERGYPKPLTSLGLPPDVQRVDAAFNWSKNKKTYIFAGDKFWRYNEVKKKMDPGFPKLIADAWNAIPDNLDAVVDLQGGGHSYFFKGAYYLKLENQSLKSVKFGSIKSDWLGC
Text: Assays on human gelatinase A, an enzyme released in high concentration by any kind of tumor cells during the process of metastatization, and recognized also as a product of stimulated cells in many pathological processes, have been performed using the protein obtained by recombinant biotechnology (Strangeways Laboratories, Cambridge, UK). The enzymatic activity has been followed over time, measuring the amount of fluorescent substrate cleaved by the enzyme, in the presence or absence of synthetic compounds (Perkin Elmer L50 B fluorimeter).

[4] = target: enzyme purified from the venom of Crotalus Adamanteus (hemorrhagin) (Crotalus adamanteus, UniProt P34179); assay type: biochemical; conditions: for IC50: read-out: IC50
[5] = target: metalloproteinase purified from snake venom, Bothrops Atrox; experiment: Inhibition of metalloproteinase purified from Bothrops Atrox venom; assay type: biochemical; conditions: Table 5; unit M
[6] = test system: release of active TNF in human cell culture medium (Jurkat); experiment: Release of active TNF from Jurkat cells (ELISA); assay type: cell-based; conditions: 72 hours incubation, stimulated with PMA and ionophore calcium
Protocol: It is well known that TNF plays a fundamental role in certain physiological defense responses but, on the other hand, causes severe damage when it is released into circulation in excessive amounts or for prolonged periods. […] An attempt was, therefore, made to see whether certain compounds selected from among those of the present application and of WO 92/06108 were capable of blocking the release of active TNF in human cell culture medium (Jurkat). The cells were incubated in the presence or in the absence of metalloproteinase inhibitor for 72 hours; the release of TNF was then stimulated using activators (PMA and ionophore calcium), and the Factor was dosed into the culture medium using the ELISA test (Genzyme).

[7] = target: neutrophil collagenase (recombinant human) (Homo sapiens, UniProt P22894); experiment: In vitro assays on recombinant human collagenase; assay type: biochemical
Protocol: Using the same enzymatic determination already described (fluorimetric detection of cleavage of a substrate peptide containing a fluorescent moiety), some of the compounds were tested on neutrophil collagenase, an enzyme described as participating in any kind of inflammatory reaction in mammalian bodies. In this case, the purified enxzyme was also obtained by recombinant means.

[8] = target: T2, recombinant human gelatinase B (Homo sapiens, UniProt P14780); experiment: In vitro effects on recombinant human gelatinase B; assay type: biochemical
T2 construct: purchased Stangeways Laboratories, Cambridge, UK (so in the source)
Protocol: Assays on human gelatinase B, another enzyme released by tumor cells, were performed using also, in this case, the protein obtained by recombinant biotechnology Stangeways Laboratories, Cambridge, UK). As usual, the enzymatic activity was followed over time, measuring the amount of fluorescent substrate cleaved by the enzyme, in the presence or absence of synthetic compounds (Perkin Elmer L50 B fluorimeter).

[9] = test system: TNF release from another strain of human cells in culture (clone T); experiment: TNF release from human cells in culture (clone T); assay type: cell-based
[10] = test system: blood cells that migrate to the inflamed site (lymphocytes, neutrophils, eosinophils, macrophages); experiment: Hypereosinophilia induced in rats by Sephadex G-200 resin; assay type: in vivo; conditions: hypereosinophilia induced by Sephadex G-200 resin, result in words
Protocol: As the metalloproteinases produced by the cells of mammals are of fundamental importance to allow the cells to migrate from one tissue to another within the organism, Compounds 9, 18, 25 and 31 of the present invention, together with the compounds Z--Pro--Leu--Cyt and FUR--Leu--Cyt (Examples 1 and 8, respectively, of WO 92/06018) were tested on hypereosinophilia induced in rats by Sephadex G-200 resin.

[11] = test system: human melanoma cell line VMM-5; experiment: Matrigel-based invasion assay with human melanoma cells; assay type: cell-based; conditions: Concentration 500 micro M, VMM-5 cells, 20 hours
Text: In order to obtain information about the possible interference of the synthesized compounds on the ability of tumor cells to migrate through the body (metastatization), the human melanoma cell line VMM-5 was used in the matrigel-based invasion assay, in which basal membrane matrigel (Becton Dickinson) and tissue culture inserts with 8 microns pore size in 24 well tissue culture plates were used as Boyden chambers. The chambers were coated with diluted matrigel and allowed to dry overnight; they were then reconstituted with serum free medium, and melanoma cells (4,000,000/ml) were dispensed in each insert. In the lower chambers, a chemoattractant was included. The chambers were finally placed in a humidified CO2 incubator at 37° C., and incubated for 20 hours. The inserts were dried and the cells on the upper surface removed. The polycarbonate filters were fixed with methanol, stained with hematoxylin and eosin, and counted with a microscope. Inhibition of migration due to compounds has been expressed as a percentage of the total number of migrated cells in the control chambers containing only the buffer in which the compounds were dissolved.

[12] = test system: microhemorrhages induced by histamine; experiment: Histamine-induced microhemorrhages (capillary permeability) in hamsters; assay type: in vivo
[13] = Resistance to proteolytic activity in stomach juices (rat stomach homogenate, HPLC); conditions: 37° C.
Protocol: To check if the compounds of the present invention are resistant to proteolytic activity in stomach juices and, therefore, could be administered orally, the stomachs of fasting rats were homogenized in physiological solutions (1:1). 300 microliters of solutions of the compounds (1 mg/ml of saline) were incubated with 0.5 ml of stomach homogenates (37° C.).

[14] = test system: hemorrhages and lethal results induced by snake venom; experiment: Inhibition of hemorrhages and lethality induced by snake venom in mice; assay type: in vivo

T2 sequence (P14780 94-707): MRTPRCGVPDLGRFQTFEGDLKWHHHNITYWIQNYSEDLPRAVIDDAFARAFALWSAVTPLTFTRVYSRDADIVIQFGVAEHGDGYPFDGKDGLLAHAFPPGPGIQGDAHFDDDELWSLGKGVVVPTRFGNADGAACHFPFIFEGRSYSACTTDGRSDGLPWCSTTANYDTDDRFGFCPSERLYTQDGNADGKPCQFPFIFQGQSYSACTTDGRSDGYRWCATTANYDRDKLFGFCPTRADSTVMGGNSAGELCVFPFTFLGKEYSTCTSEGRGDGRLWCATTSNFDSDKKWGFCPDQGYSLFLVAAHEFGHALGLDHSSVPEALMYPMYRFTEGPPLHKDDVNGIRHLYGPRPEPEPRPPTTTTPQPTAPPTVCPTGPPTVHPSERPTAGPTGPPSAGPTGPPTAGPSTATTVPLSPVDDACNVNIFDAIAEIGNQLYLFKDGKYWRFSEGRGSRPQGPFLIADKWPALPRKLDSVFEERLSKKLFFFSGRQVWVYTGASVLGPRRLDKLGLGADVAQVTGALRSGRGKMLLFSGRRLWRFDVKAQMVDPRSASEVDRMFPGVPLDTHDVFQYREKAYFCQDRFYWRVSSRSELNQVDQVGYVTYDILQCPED
Chain of neutrophil collagenase (recombinant human) (P22894 101-467): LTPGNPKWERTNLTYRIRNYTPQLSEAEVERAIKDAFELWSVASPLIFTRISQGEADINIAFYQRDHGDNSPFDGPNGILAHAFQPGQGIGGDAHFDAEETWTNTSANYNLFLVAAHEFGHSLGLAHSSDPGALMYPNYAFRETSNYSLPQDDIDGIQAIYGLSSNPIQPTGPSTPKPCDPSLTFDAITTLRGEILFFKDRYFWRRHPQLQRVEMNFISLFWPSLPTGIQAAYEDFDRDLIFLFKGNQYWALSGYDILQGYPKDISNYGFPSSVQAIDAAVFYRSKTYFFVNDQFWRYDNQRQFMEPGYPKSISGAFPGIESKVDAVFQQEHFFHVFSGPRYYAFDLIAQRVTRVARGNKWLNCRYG
Chain of enzyme purified from the venom of Crotalus Adamanteus (hemorrhagin) (P34179 whole entry, looked up): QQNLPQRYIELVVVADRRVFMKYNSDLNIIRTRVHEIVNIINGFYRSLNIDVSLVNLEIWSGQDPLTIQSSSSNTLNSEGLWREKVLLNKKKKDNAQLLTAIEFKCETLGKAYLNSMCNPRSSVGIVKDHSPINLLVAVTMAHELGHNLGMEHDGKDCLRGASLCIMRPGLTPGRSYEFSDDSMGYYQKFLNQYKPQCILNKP

Molecule: Cc1ccc(C(=O)N[C@@H](CC(C)C)C(=O)N2Cc3[nH]c4ccccc4c3C[C@H]2C(=O)O)cn1 [Compound 22, 6-MNC--(L)--Leu--(S)--Cyt--OH]
- IC50 [1]: 21 µM
- IC50 [2]: 14 µM
- % Inhibition ([3]; Concentration 8.0 × 10^-7 M): 47%
- IC50 [4]: 0.11 µM
- IC50 [5]: 3.2 µM

Molecule: CC(C)C[C@H](NC(=O)c1cc2ccccc2o1)C(=O)N1Cc2[nH]c3ccccc3c2C[C@H]1C(=O)O [Compound 15, 2-BZF--(L)--Leu--(S)--Cyt--OH]
- IC50 [1]: 14 µM
- IC50 [2]: 2 µM
- IC50 [4]: 0.04 µM
- IC50 [5]: 8.2 µM

Molecule: Z--Pro--Leu--Cyt
- IC50 of inhibition of TNF release by cells [6]: around 5 mcg/ml
- % Inhibition ([7]; Concentration 1.8 × 10^-5 M): 23%
- % Inhibition ([3]; Concentration 1.8 × 10^-7 M): 64%
- % Inhibition ([8]; Concentration 9.0 × 10^-6 M): 32%
- IC50 of inhibition of TNF release [9]: lower than 1 mcg/ml
- Effect on number of blood cells that migrate to the inflamed site [10]: interfered with the number of blood cells that migrate to the inflamed site
- % Inhibition of Invasion [11]: 70%
- Dose capable of blocking 50% of effects ([12]; administered orally): around 50 mcg/Kg
- Dose capable of blocking 50% of effects ([12]; injected intravenously): around 50 mcg/Kg
- Blocking microhemorrhages induced by histamine ([12]; result in words): extremely powerful in blocking microhemorrhages induced by histamine

Molecule: CC(C)C[C@H](NC(=O)c1cnccn1)C(=O)N1Cc2[nH]c3ccccc3c2C[C@H]1C(=O)O [Compound 18, 2-PZC--(L)--Leu--(S)--Cyt--OH]
- IC50 [1]: 8.4 µM
- IC50 [2]: 7 µM
- IC50 [4]: 0.21 µM
- Effect on number of blood cells that migrate to the inflamed site [10]: interfered with the number of blood cells that migrate to the inflamed site
- IC50 [5]: 5.2 µM

Molecule: O=C(N[C@@H](CC1CCCCC1)C(=O)N1Cc2[nH]c3ccccc3c2C[C@H]1C(=O)O)c1ccco1 [Compound 10, 2-FUR--(L)--Cha--(S)--Cyt--OH]
- IC50 of inhibition of TNF release by cells [6]: around 200 mcg/ml
- % Inhibition ([7]; Concentration 2.1 × 10^-5 M): 51%
- IC50 [4]: 0.025 µM
- % Inhibition ([8]; Concentration 1.1 × 10^-5 M): 32%
- Residue after 60 Minutes ([13]; 60 minutes): 100%
- Residue after 120 Minutes ([13]; 120 minutes): > 95%
- % Inhibition of Invasion [11]: 99%

Molecule: FUR--Leu--Cyt
- Effect on number of blood cells that migrate to the inflamed site [10]: interfered with the number of blood cells that migrate to the inflamed site
- % Inhibition of Invasion [11]: 69%

Molecule: 4-MBZ--(L)--Trp--(S)--Cyt--OH [Compound 25]
- IC50 of inhibition of TNF release by cells [6]: around 0.7 mcg/ml
- % Inhibition ([7]; Concentration 5.2 × 10^-5 M): 23%
- IC50 [4]: 0.054 µM
- Effect on number of blood cells that migrate to the inflamed site [10]: interfered with the number of blood cells that migrate to the inflamed site

Molecule: CC(C)C[C@H](NC(=O)c1ccco1)C(=O)N[C@@H](Cc1c[nH]c2ccccc12)C(=O)O [2-FUR--Leu--Trp]
- % Inhibition ([7]; Concentration 2.4 × 10^-5 M): 12%
- % Inhibition ([3]; Concentration 1.0 × 10^-7 M): 41%
- In vitro inhibition of the metalloproteinase purified from the venom of Crotalus Adamanteus [4]: excellent in vitro inhibitor
- % Inhibition ([8]; Concentration 1.0 × 10^-5 M): 22%
- Protection of mice from death by injection of the venom ([14]; dose of 33 mcg/mouse, even when administered after the venom (up to 30 minutes)): capable of protecting the mice from death
- Neutralizing the toxic effects of hemorrhagic factors of various snake venom ([14]; mice, compound incubated with the hemorrhagic factors): capable of neutralizing the toxic effects thereof

Molecule: CC(C)C[C@H](NC(=O)c1ccccn1)C(=O)N1Cc2[nH]c3ccccc3c2C[C@H]1C(=O)O [Compound 9, PIC--(L)--Leu--(S)--Cyt--OH]
- IC50 of inhibition of TNF release by cells [6]: around 8 mcg/ml
- IC50 [4]: 0.027 µM
- % Inhibition ([8]; Concentration 1.1 × 10^-5 M): 20%
- Effect on number of blood cells that migrate to the inflamed site [10]: interfered with the number of blood cells that migrate to the inflamed site
- % Inhibition of Invasion [11]: 94%
